#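 The compound was tested at five concentrations on cells cultured in 96-well plates, with a 48-hour exposure period. GI50: concentration for 50% inhibition of growth.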 The source made the active and inactive calls. No stated cut-off is given here; in the data, active = GI50 up to about 1.1 µM and inactive = higher.
# Columns and labels:
# Experiment in all cases: NCI-60 cell line screen, 48 h
# 786-0 = system: 786-0
# A498 = system: A498
# A549 = system: A549
# ACHN = system: ACHN
# BT-549 = system: BT-549
# CAKI-1 = system: CAKI-1
# CCRF-CEM = system: CCRF-CEM
# COLO 205 = system: COLO 205
# DU-145 = system: DU-145
# EKVX = system: EKVX
# HCC 2998 = system: HCC 2998
# HCT-116 = system: HCT-116
# HCT-15 = system: HCT-15
# HL-60 = system: HL-60
# HOP-62 = system: HOP-62
# HOP-92 = system: HOP-92
# HT-29 = system: HT-29
# Hs-578T = system: Hs-578T
# IGROV-1 = system: IGROV-1
# K562 = system: K562
# KM12 = system: KM12
# LOX IMVI = system: LOX IMVI
# M14 = system: M14
# MCF7 = system: MCF7
# MDA-MB-231 = system: MDA-MB-231
# MDA-MB-435 = system: MDA-MB-435
# MDA-N = system: MDA-N
# MOLT-4 = system: MOLT-4
# Malme-3M = system: Malme-3M
# NCI-H226 = system: NCI-H226
# NCI-H23 = system: NCI-H23
# NCI-H460 = system: NCI-H460
# NCI-H522 = system: NCI-H522
# NCI/ADR-RES = system: NCI/ADR-RES
# OVCAR-3 = system: OVCAR-3
# OVCAR-4 = system: OVCAR-4
# OVCAR-5 = system: OVCAR-5
# OVCAR-8 = system: OVCAR-8
# PC-3 = system: PC-3
# RPMI-8226 = system: RPMI-8226
# RXF 393 = system: RXF 393
# SF-268 = system: SF-268
# SF-295 = system: SF-295
# SF-539 = system: SF-539
# SK-MEL-28 = system: SK-MEL-28
# SK-MEL-2 = system: SK-MEL-2
# SK-MEL-5 = system: SK-MEL-5
# SK-OV-3 = system: SK-OV-3
# SN12C = system: SN12C
# SNB-19 = system: SNB-19
# SNB-75 = system: SNB-75
# SR = system: SR
# SW-620 = system: SW-620
# T47D = system: T47D
# TK-10 = system: TK-10
# U-251 = system: U-251
# UACC-257 = system: UACC-257
# UACC-62 = system: UACC-62
# UO-31 = system: UO-31
smiles,measurement,setting,value
COc1cc(CNC(=O)CCCCCCCCCCSSCCCCCCCCCCC(=O)NCc2ccc(O)c(OC)c2)ccc1O,GI50,786-0,> 10 µM (inactive)
same,GI50,A498,> 10 µM (inactive)
same,GI50,A549,> 10 µM (inactive)
same,GI50,ACHN,> 10 µM (inactive)
same,GI50,BT-549,> 10 µM (inactive)
same,GI50,CAKI-1,> 10 µM (inactive)
same,GI50,CCRF-CEM,> 10 µM (inactive)
same,GI50,COLO 205,> 10 µM (inactive)
same,GI50,DU-145,> 10 µM (inactive)
same,GI50,EKVX,> 10 µM (inactive)
same,GI50,HCC 2998,> 10 µM (inactive)
same,GI50,HCT-116,> 10 µM (inactive)
same,GI50,HCT-15,> 10 µM
same,GI50,HL-60,> 10 µM (inactive)
same,GI50,HOP-62,> 10 µM (inactive)
same,GI50,HOP-92,> 10 µM (inactive)
same,GI50,HT-29,> 10 µM (inactive)
same,GI50,Hs-578T,> 10 µM (inactive)
same,GI50,IGROV-1,> 10 µM (inactive)
same,GI50,K562,> 10 µM (inactive)
same,GI50,KM12,> 10 µM (inactive)
same,GI50,LOX IMVI,> 10 µM (inactive)
same,GI50,M14,> 10 µM (inactive)
same,GI50,MCF7,> 10 µM (inactive)
same,GI50,MDA-MB-231,> 10 µM (inactive)
same,GI50,MDA-MB-435,> 10 µM (inactive)
same,GI50,MDA-N,> 10 µM (inactive)
same,GI50,MOLT-4,> 10 µM (inactive)
same,GI50,Malme-3M,> 10 µM (inactive)
same,GI50,NCI-H226,> 10 µM (inactive)
same,GI50,NCI-H23,> 10 µM (inactive)
same,GI50,NCI-H460,> 10 µM (inactive)
same,GI50,NCI-H522,0.918 µM (active)
same,GI50,NCI/ADR-RES,> 10 µM (inactive)
same,GI50,OVCAR-3,> 10 µM (inactive)
same,GI50,OVCAR-4,> 10 µM (inactive)
same,GI50,OVCAR-5,> 10 µM (inactive)
same,GI50,OVCAR-8,> 10 µM (inactive)
same,GI50,PC-3,> 10 µM (inactive)
same,GI50,RPMI-8226,> 10 µM (inactive)
same,GI50,RXF 393,0.184 µM (active)
same,GI50,SF-268,> 10 µM (inactive)
same,GI50,SF-295,> 10 µM (inactive)
same,GI50,SF-539,> 10 µM (inactive)
same,GI50,SK-MEL-28,> 10 µM (inactive)
same,GI50,SK-MEL-2,> 10 µM (inactive)
same,GI50,SK-MEL-5,> 10 µM (inactive)
same,GI50,SK-OV-3,> 10 µM (inactive)
same,GI50,SN12C,> 10 µM (inactive)
same,GI50,SNB-19,> 10 µM (inactive)
same,GI50,SNB-75,> 10 µM (inactive)
same,GI50,SR,> 10 µM (inactive)
same,GI50,SW-620,> 10 µM (inactive)
same,GI50,T47D,> 10 µM (inactive)
same,GI50,TK-10,> 10 µM (inactive)
same,GI50,U-251,> 10 µM (inactive)
same,GI50,UACC-257,> 10 µM (inactive)
same,GI50,UACC-62,> 10 µM (inactive)
C/C=C\C(C)=C/C(C)C(=O)CC(O)CC1CC(=O)NC(=O)C1 (stereo unspecified),GI50,786-0,13.5 µM (inactive)
same,GI50,A498,28.6 µM (inactive)
same,GI50,A549,21.5 µM (inactive)
same,GI50,ACHN,17.5 µM (inactive)
same,GI50,BT-549,34.2 µM (inactive)
same,GI50,CAKI-1,7.13 µM (inactive)
same,GI50,CCRF-CEM,10.1 µM (inactive)
same,GI50,COLO 205,17.1 µM (inactive)
same,GI50,DU-145,19.1 µM (inactive)
same,GI50,EKVX,> 100 µM (inactive)
same,GI50,HCC 2998,33.5 µM (inactive)
same,GI50,HCT-116,16.4 µM (inactive)
same,GI50,HCT-15,13.4 µM
same,GI50,HL-60,40.2 µM (inactive)
same,GI50,HOP-62,12.1 µM (inactive)
same,GI50,HOP-92,72.8 µM (inactive)
same,GI50,HT-29,24 µM (inactive)
same,GI50,Hs-578T,4.09 µM (inactive)
same,GI50,IGROV-1,19 µM (inactive)
same,GI50,K562,20.5 µM (inactive)
same,GI50,KM12,14.6 µM (inactive)
same,GI50,LOX IMVI,20.6 µM (inactive)
same,GI50,M14,13.6 µM (inactive)
same,GI50,MCF7,21 µM (inactive)
same,GI50,MDA-MB-231,> 42.3 µM (inactive)
same,GI50,MDA-MB-435,28.4 µM (inactive)
same,GI50,MDA-N,19.5 µM (inactive)
same,GI50,MOLT-4,4.79 µM (inactive)
same,GI50,NCI-H226,35.5 µM (inactive)
same,GI50,NCI-H23,23.7 µM (inactive)
same,GI50,NCI-H460,14.8 µM (inactive)
same,GI50,NCI-H522,2.01 µM (inactive)
same,GI50,NCI/ADR-RES,4.71 µM (inactive)
same,GI50,OVCAR-3,22.3 µM (inactive)
same,GI50,OVCAR-4,19.1 µM (inactive)
same,GI50,OVCAR-5,4.86 µM (inactive)
same,GI50,OVCAR-8,8.71 µM (inactive)
same,GI50,PC-3,9.31 µM (inactive)
same,GI50,RPMI-8226,19 µM (inactive)
same,GI50,RXF 393,17.1 µM (inactive)
same,GI50,SF-268,10.5 µM (inactive)
same,GI50,SF-295,5.79 µM (inactive)
same,GI50,SF-539,14 µM (inactive)
same,GI50,SK-MEL-28,34.4 µM (inactive)
same,GI50,SK-MEL-2,13.6 µM (inactive)
same,GI50,SK-MEL-5,17.9 µM (inactive)
same,GI50,SK-OV-3,5.77 µM (inactive)
same,GI50,SN12C,13 µM (inactive)
same,GI50,SNB-19,17.8 µM (inactive)
same,GI50,SNB-75,5.27 µM (inactive)
same,GI50,SR,10.9 µM (inactive)
same,GI50,SW-620,20.2 µM (inactive)
same,GI50,T47D,28.1 µM (inactive)
same,GI50,TK-10,49.2 µM (inactive)
same,GI50,U-251,31.2 µM (inactive)
same,GI50,UACC-257,22.2 µM (inactive)
same,GI50,UACC-62,9.73 µM (inactive)
same,GI50,UO-31,20.1 µM (inactive)

# Reference: ChEMBL document CHEMBL1201862, “PubChem BioAssay data set” (2004)
